Numbered stars: 1 amine (or outer) side, 2 acyl side, 3 side chain; on linkers, the order of the positions; unused ones are H or OH. Bridge positions count the residues as written; N and C are the ends. Square brackets hold non-standard residues; d marks the D form. Peptide text beside a SMILES is read from it. * marks the point of attachment. C20 diacid = O=C(O)CCCCCCCCCCCCCCCCCCC(=O)*; γGlu = O=C(O)[C@H](CCC(=O)[*:2])N[*:1]; Hyp = O=C(O)[C@@H]1C[C@@H](O)CN1; NMeI = CC[C@H](C)[C@H](NC)C(=O)O; Aad = N[C@@H](CCCC(=O)O)C(=O)O; Sar = CNCC(=O)O
Tests used:
[1] = biological target: T1, recombinant human calcitonin receptor (hCT-R) (Homo sapiens, UniProt P30988); assay: hCT-R cAMP assay (AlphaScreen) in 1321N1 cells; type: cell-based; details: cAMP formation, 45 min stimulation
T1 construct: host or cells: human astrocytoma cell line 1321N1
T1 sequence (P30988 25-474): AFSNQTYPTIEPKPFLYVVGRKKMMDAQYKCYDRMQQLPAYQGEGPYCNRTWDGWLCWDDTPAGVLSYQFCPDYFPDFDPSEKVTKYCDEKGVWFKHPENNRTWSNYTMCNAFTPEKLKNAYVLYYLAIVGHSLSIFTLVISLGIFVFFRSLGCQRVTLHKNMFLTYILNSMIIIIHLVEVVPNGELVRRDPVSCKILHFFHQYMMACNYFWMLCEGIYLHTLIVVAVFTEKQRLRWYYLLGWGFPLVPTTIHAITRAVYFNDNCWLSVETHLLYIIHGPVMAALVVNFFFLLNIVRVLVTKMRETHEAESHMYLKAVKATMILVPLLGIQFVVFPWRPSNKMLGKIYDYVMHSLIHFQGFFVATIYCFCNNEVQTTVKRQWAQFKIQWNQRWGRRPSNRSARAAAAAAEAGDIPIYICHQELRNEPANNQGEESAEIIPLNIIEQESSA
Method in brief: (§1)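 1321N1 astrocytoma cells expressing recombinant human calcitonin receptor alone or with RAMP3 (AMY3) stimulated 45 min at room temperature with peptide in IBMX-containing buffer. cAMP quantified by AlphaScreen after 1 h bead incubation; EC50 fitted from at least 7 concentrations.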

[2] = biological target: T2, recombinant human amylin 3 receptor (hAMYR3) (Homo sapiens, UniProt O60896+P30988); assay: hAMYR3 cAMP assay (AlphaScreen) in 1321N1 cells; type: cell-based; details: cAMP formation, 45 min stimulation
T2 construct: host or cells: human astrocytoma cell line 1321N1
T2 sequence (P30988 25-474): T1 sequence (P30988 25-474)
T2 sequence (O60896 24-148 partner): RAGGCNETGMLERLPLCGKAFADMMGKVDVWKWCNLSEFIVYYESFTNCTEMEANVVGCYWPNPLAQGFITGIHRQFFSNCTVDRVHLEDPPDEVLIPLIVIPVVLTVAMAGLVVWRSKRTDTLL
Method in brief: as §1

[3] = Assessment of physical stability: fibril formation by Thioflavin T fluorescence; type: physicochemical; design: key: FND = fibrillation not detected; FD = fibrillation detected; details: 1 mg/mL peptide; for Fibrillation (in buffer) pH4 acetate: 50 mM acetate buffer pH 4.0, 96 hours at 40° C.; for Fibrillation (in buffer) pH7 histidine: 50 mM histidine buffer pH 7.0, 96 hours at 40° C.; for Fibrillation (in buffer) pH7 phosphate: 50 mM phosphate buffer pH 7.0, 96 hours at 40° C.
Method in brief: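 Test peptide at 1 mg/mL with 40 μM ThT in 50 mM phosphate pH 7.0, 50 mM histidine pH 7.0, or 50 mM acetate pH 4.0, in triplicate. Fluorescence read every 10 min after 300 s agitation for 96 hours at 40° C; significant intensity rise scored as fibrillation detected (FD).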

[4] = Assessment of chemical stability in 40 mM buffers at 40° C. (RP-HPLC); type: physicochemical; details: 1 mg/mL; for % degradation after 72 h at 40° C. pH6 phosphate: phosphate buffer pH 6, 72 h; for % degradation after 14 days at 40° C. pH6 phosphate: phosphate buffer pH 6, 14 days; for % degradation after 72 h at 40° C. pH7 phosphate: phosphate buffer pH 7, 72 h; for % degradation after 14 days at 40° C. pH7 phosphate: phosphate buffer pH 7, 14 days; for % degradation after 72 h at 40° C. pH4 acetate: acetate buffer pH 4, 72 h
Method in brief: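 Peptides at 1 mg/mL in 40 mM acetate pH 4 or phosphate pH 6 and 7 were held at 40° C for 3 and 14 days. Main-peak area-% by C8 RP-HPLC, UV 220 nm; % degradation = change in main-peak area-% versus t=0.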

[5] = Effect on acute food intake and body weight in normal Sprague Dawley rats; type: in vivo, Sprague Dawley (SD) rats; details: vehicle-corrected
Excerpt: Sprague Dawley (SD) rats were obtained from Janvier Labs, France. The animals arrived at least 14 days before the study start to allow acclimatization to experimental conditions. From arrival and throughout the study, the rats were housed in groups of 2 to 4 (n=2-4) in a light-, temperature- and humidity-controlled room. Animals had access ad libitum to food (KLIBA 3430, Provimi Kliba AG, Switzerland) and water (domestic quality tap water) during the entire study. Per group 6-8 rats were included. A vehicle group and positive control group were included in each set of tests. […] Dosing volume was 2 ml/kg. Food intake was recorded online using an automated food intake system (HM02, MBRose, Denmark) for 4 days or manually at 0 h for a predose and then 24, 48, 72 and 96 h post dosing. Body weight was measured daily.
Statistical analyses were performed using GraphPad™ Prism version 7. The measured parameters were compared using two-way ANOVA followed by Dunnett's multiple comparison tests. Differences were considered statistically significant at p<0.05.

| EC50 [1] | EC50 [2] | Fibrillation (in buffer) pH4 acetate [3] | Fibrillation (in buffer) pH7 histidine [3] | Fibrillation (in buffer) pH7 phosphate [3] | % degradation after 72 h at 40° C. pH6 phosphate [4] | % degradation after 14 days at 40° C. pH6 phosphate [4] | % degradation after 72 h at 40° C. pH7 phosphate [4] | % degradation after 14 days at 40° C. pH7 phosphate [4] | % degradation after 72 h at 40° C. pH4 acetate [4] | % degradation after 14 days at 40° C. pH4 acetate ([4]; acetate buffer pH 4, 14 days) | Structure (SMILES) | Body weight reduction in % at 48 h ([5]; Dose: 30 nmol/kg sc) | Food intake reduction in % at 48 h ([5]; Dose: 30 nmol/kg sc) | Body weight reduction in % at 48 h ([5]; at dose of 10 nmol/kg sc) | Food intake reduction in % at 48 h ([5]; at dose of 10 nmol/kg sc) |
| --- | --- | --- | --- | --- | --- | --- | --- | --- | --- | --- | --- | --- | --- | --- | --- |
| 0.116 nM | 0.031 nM | FD | FND | FND | <1% | <1% | 3.0% | <1% | – | – | CC[C@H](C)[C@@H](C(=O)N[C@@H](CC(C)C)C(=O)N[C@@H](CO)C(=O)N[C@@H](CO)C(=O)N[C@H](C(=O)N[C@@H](CCC(=O)O)C(=O)N[C@H](C(=O)NCC(=O)N[C@@H](CO)C(=O)N[C@@H](CC(N)=O)C(=O)N[C@H](C(=O)N1C[C@H](O)C[C@H]1C(N)=O)[C@@H](C)O)C(C)C)[C@@H](C)O)N(C)C(=O)[C@H](C)NC(=O)CN(C)C(=O)[C@H](Cc1ccccc1)NC(=O)[C@H](CO)NC(=O)[C@H](CO)NC(=O)[C@H](CCCNC(=N)N)NC(=O)[C@H](CCC(N)=O)NC(=O)[C@H](CC(C)C)NC(=O)[C@H](Cc1ccccc1)NC(=O)[C@H](CCCC(=O)O)NC(=O)[C@H](C)NC(=O)[C@H](CC(C)C)NC(=O)[C@H](CCCNC(=N)N)NC(=O)[C@H](CCC(=O)O)NC(=O)[C@@H](NC(=O)[C@H](C)NC(=O)[C@@H]1CCCCNC(=O)C[C@H](NC(=O)[C@H](CCC(=O)O)NC(=O)CC[C@H](NC(=O)CCCCCCCCCCCCCCCCCCC(=O)O)C(=O)O)C(=O)NCC(=O)N[C@@H]([C@@H](C)O)C(=O)N[C@@H](C)C(=O)N[C@@H]([C@@H](C)O)C(=O)N1)[C@@H](C)O [Compound 37, [19CD]-isoGlu-ED()GTATK()ATERLA-Aad-FLQRSSFGly(Me)-A-Ile(Me)-LSSTEVGSNT-Hyp-NH2] ({C20 diacid-γGlu}-EDGTATKATERLA[Aad]FLQRSSF[Sar]A[NMeI]LSSTEVGSNT[Hyp]-NH2; lactam 2-7) | 4.3% | 24% | – | – |
| 0.028 nM | 0.008 nM | FD | FND | FND | <1% | – | <1% | – | 1.1% | – | CC[C@H](C)[C@@H](C(=O)N[C@@H](CC(C)C)C(=O)N[C@@H](CO)C(=O)N[C@@H](CO)C(=O)N[C@H](C(=O)N[C@@H](CCC(=O)O)C(=O)N[C@H](C(=O)NCC(=O)N[C@@H](CO)C(=O)N[C@@H](CC(N)=O)C(=O)N[C@H](C(=O)N1C[C@H](O)C[C@H]1C(N)=O)[C@@H](C)O)C(C)C)[C@@H](C)O)N(C)C(=O)[C@H](C)NC(=O)CN(C)C(=O)[C@H](Cc1ccccc1)NC(=O)[C@H](CO)NC(=O)[C@H](CO)NC(=O)[C@H](CCCNC(=N)N)NC(=O)[C@H](CCC(N)=O)NC(=O)[C@H](CC(C)C)NC(=O)[C@H](Cc1ccccc1)NC(=O)[C@H](CCCC(=O)O)NC(=O)[C@H](C)NC(=O)[C@H](CC(C)C)NC(=O)[C@H](CCCNC(=N)N)NC(=O)[C@H](CCC(N)=O)NC(=O)[C@@H](NC(=O)[C@H](C)NC(=O)[C@@H]1CCCCNC(=O)C[C@H](NC(=O)[C@H](CCCNC(=N)N)NC(=O)CC[C@H](NC(=O)CCCCCCCCCCCCCCCCCCC(=O)O)C(=O)O)C(=O)NCC(=O)N[C@@H]([C@@H](C)O)C(=O)N[C@@H](C)C(=O)N[C@@H]([C@@H](C)O)C(=O)N1)[C@@H](C)O [Compound 40, [19CD]-isoGlu-RD()GTATK()ATQRLA-Aad-FLQRSSF-Gly(Me)-A-Ile(Me)-LSSTEVGSNT-Hyp-NH2] ({C20 diacid-γGlu}-RDGTATKATQRLA[Aad]FLQRSSF[Sar]A[NMeI]LSSTEVGSNT[Hyp]-NH2; lactam 2-7) | 7.3% | 83% | – | – |
| 0.095 nM | 0.024 nM | FND | FND | FND | <1% | <1% | <1% | <1% | <1% | 1.1% | CC[C@H](C)[C@@H](C(=O)N[C@@H](CC(C)C)C(=O)N[C@@H](CO)C(=O)N[C@@H](CO)C(=O)N[C@H](C(=O)N[C@@H](CCC(=O)O)C(=O)N[C@H](C(=O)NCC(=O)N[C@@H](CO)C(=O)N[C@@H](CC(N)=O)C(=O)N[C@H](C(=O)N1C[C@H](O)C[C@H]1C(N)=O)[C@@H](C)O)C(C)C)[C@@H](C)O)N(C)C(=O)[C@H](C)NC(=O)CN(C)C(=O)[C@H](Cc1ccccc1)NC(=O)[C@H](CO)NC(=O)[C@H](CO)NC(=O)[C@H](CCCNC(=N)N)NC(=O)[C@H](CCC(N)=O)NC(=O)[C@H](CC(C)C)NC(=O)[C@H](Cc1ccccc1)NC(=O)[C@H](CC(=O)O)NC(=O)[C@H](C)NC(=O)[C@H](CC(C)C)NC(=O)[C@H](CCCNC(=N)N)NC(=O)[C@H](CCC(N)=O)NC(=O)[C@@H](NC(=O)[C@H](C)NC(=O)[C@@H]1CCCCNC(=O)C[C@H](NC(=O)[C@H](CCCNC(=N)N)NC(=O)CC[C@H](NC(=O)CCCCCCCCCCCCCCCCCCC(=O)O)C(=O)O)C(=O)NCC(=O)N[C@@H]([C@@H](C)O)C(=O)N[C@@H](C)C(=O)N[C@@H]([C@@H](C)O)C(=O)N1)[C@@H](C)O [Compound 41, [19CD]-isoGlu-RD()GTATK()ATQRLADFLQRSSF-Gly(Me)-A-Ile(Me)-LSSTEVGSNT-Hyp-NH2] ({C20 diacid-γGlu}-RDGTATKATQRLADFLQRSSF[Sar]A[NMeI]LSSTEVGSNT[Hyp]-NH2; lactam 2-7) | 11% | 75% | – | – |
| 0.026 nM | 0.007 nM | FD | FND | FND | 2.1% | 1.6% | 1.0% | <1% | 2.5% | – | CC[C@H](C)[C@@H](C(=O)N[C@@H](CC(C)C)C(=O)N[C@@H](CO)C(=O)N[C@@H](CO)C(=O)N[C@H](C(=O)N[C@@H](CCC(=O)O)C(=O)N[C@H](C(=O)NCC(=O)N[C@@H](CO)C(=O)N[C@@H](CC(N)=O)C(=O)N[C@H](C(=O)N1C[C@H](O)C[C@H]1C(N)=O)[C@@H](C)O)[C@@H](C)O)[C@@H](C)O)N(C)C(=O)[C@H](C)NC(=O)CN(C)C(=O)[C@H](Cc1ccccc1)NC(=O)[C@H](CO)NC(=O)[C@H](CO)NC(=O)[C@H](CCCNC(=N)N)NC(=O)[C@H](CCC(N)=O)NC(=O)[C@H](CC(C)C)NC(=O)[C@H](Cc1ccccc1)NC(=O)[C@H](CCCC(=O)O)NC(=O)[C@H](C)NC(=O)[C@H](CC(C)C)NC(=O)[C@H](CCCNC(=N)N)NC(=O)[C@H](CCC(=O)O)NC(=O)[C@@H](NC(=O)[C@H](C)NC(=O)[C@@H]1CCCCNC(=O)C[C@H](NC(=O)[C@H](CCCNC(=N)N)NC(=O)CC[C@H](NC(=O)CCCCCCCCCCCCCCCCCCC(=O)O)C(=O)O)C(=O)NCC(=O)N[C@@H]([C@@H](C)O)C(=O)N[C@@H](C)C(=O)N[C@@H]([C@@H](C)O)C(=O)N1)[C@@H](C)O [Compound 36, [19CD]-isoGlu-RD()GTATK()ATERLA-Aad-FLQRSSF-Gly(Me)-A-Ile(Me)-LSSTETGSNT-Hyp-NH2] ({C20 diacid-γGlu}-RDGTATKATERLA[Aad]FLQRSSF[Sar]A[NMeI]LSSTETGSNT[Hyp]-NH2; lactam 2-7) | – | – | 5.2% | 44% |

From US11382956B2, “Amylin analogues” (Zealand Pharma A/S, priority 2016, dated 2022)
